This note sets out measurements from US20200171132A1, “METHODS OF INHIBITING FUNGAL CERAMIDE SYNTHASE FOR TREATMENT OF CRYPTOCOCCUS NEOFORMANS INFECTION” (The Research Foundation for the State University of New York, priority 2017, published 2020).

For the assay, the system named is fungal Cer1 (Cn Cer1). Nature of the assay: High throughput ceramide synthase assay (96-well, NBD-sphingosine, SPE). In kind it is biochemical, Cryptococcus neoformans. The following applies: 1 micromolar; wells contained 10 compounds each; 1 hour at 37° C. The procedure: The compounds were first diluted to 1 mM each (1:10 dilution with 10% DMSO) with a physiological buffer (YNB medium buffered with HEPES at pH 7.4 containing 2% glucose) and subsequently diluted to 300 μM (1:3.3 dilution) with the same medium (3% DMSO). A 100-μl aliquot of this solution was placed into each well of a 96-well master plate and stored at −20° C. until use. Each well in the screening master plates contained 10 compounds at 1 μM each. The ceramide synthase reaction was performed in a 96-well plate format using fungal Cer1 (Cn Cer1) or human ceramide synthase (Hu-Cer1, -Cer2, -Cer3, -Cer4, -Cer5, or -Cer6) enzyme, containing NBD-Sphingosine (NBD-Sph) (Avanti Polar Lipids) and 18:0 Coenzyme A (Stearoyl Coenzyme A, Avanti Polar Lipids) as substrates using the following concentrations: 10 μM NBD-Sph and 50 μM fatty acid CoA. The reaction mixture was prepared in HEPES buffer (20 mM HEPES, pH 7.2, 25 mM KCl, 250 mM sucrose, and 2 mM MgCl2). Library compounds were added and plate incubated for 1 hour at 37 C. The lipid product (NBD-ceramide) was separated using solid phase extraction (SPE) column chromatography using Strata® C18-E, 96 well plates (Phenomenex). Reaction product was measured using a plate reader.
The Cn Cer1 enzyme is expressed using the pYES-GAL1 galactose inducible system in Saccharomyces cerevisiae whereas the mammalian ceramide synthases (Cer1-6) are induced with tetracycline using the Tet-On System in HCT-116 cells under the control of Geneticin and Blasticidin. Cn Cer1 or Hu Cer1-6 enzymes were extracted using the tag system and enriched in microsomal preparation. Before using the enzymes in the plate screening, each preparation was tested for ceramide activity using the TLC assay illustrated in FIG. 11, to make sure the ceramide synthase activity works as expected. Appropriate negative controls (e.g. Cn Cer1 on glucose or Hu Cer1 in absence of tetracycline) were included in each plate during the screening.
The ceramide synthase assay was performed using NBD-Sphingosine (NBD-Sph) (Avanti polar lipids) and 18:0 Coenzyme A (Stearoyl Coenzyme A, Avanti polar lipids) as substrates using the following concentrations: 10 μM NBD-Sph and 50 μM fatty acid CoA. Enzyme(s)—ceramide synthases—were prepared using microsome purification of the yeasts or mammalian expression system. For yeast, the S. cerevisiae strain BY4741 expressing C. neoformans ceramide synthase 1 using the pYES GAL1 expression system was grown in 200 ml of liquid YNB 2% galactose medium for 16 hours. The same strain grown in the same medium but containing 2% glucose was used as a negative control because the Cn Cer1 gene is under the control of the galactose promoter (GAL1). Cells were then harvested by centrifugation, resuspended in 2 ml of Lysis Buffer (20 mM HEPES/KOH, pH 7.4, 25 mM KCl, 2 mM MgCl2, 250 mM sorbitol) and 50 μl of proteinase inhibitor mixture (Sigma-Aldrich)/g of cells, and broken by bead-bashing at 4° C. for 1.5 h. Cell debris were removed by centrifuging at 1000 g at 4° C. for 10 min. The supernatant was loaded on a 60% (w/w) sucrose cushion and centrifuged at 100,000 g for 1 h. The microsomes were collected from the interphase, snap frozen in liquid nitrogen, and stored at −80° C. until use.
The high throughput assays were adapted from the Avanti Ceramide synthase assay kit (https://avantilipids.com/product/640011/). The reactions were first downsized to 20 μl in a 96-well plate format using human ceramide synthases (Cer1, […], Cer3, Cer4, Cer5, or Cer6) along with Cn Cer1. Lipid product (NBD-ceramide) was separated using solid phase extraction (SPE) column chromatography using Strata® C18-E, 96 well plates (Phenomenex). The reaction product was measured using a plate reader, as in FIG. 12. The Z′ score of the assay is 0.80194, which is considered excellent (FIG. 12).
An initial screening yielded compounds 1-10 (Table 3). […]

Regarding `CC(C)Nc1cc(-c2ccc3c(c2)OCO3)nc(N)n1` [Compound 1], the “% reduction in activity (inhibition of Cn Cer1 synthse activity)” value was 94.43%.
The figure for `OCc1cc(-c2ccc3ccccc3n2)ccc1F` [Compound 2] is 94.43%; for `C=CCc1cc(-c2[nH]cnc2-c2ccccc2)cc(OC)c1O` [Compound 3] it is 94.43%.
Turning to `Cc1ccsc1C(=O)N1CCN2C(=O)CNC(=O)C2C1` (stereo not shown) [Compound 4], the “% reduction in activity (inhibition of Cn Cer1 synthse activity)” value came to 94.43%.
In the case of `Cn1ccnc1CN(Cc1cc2ccccc2o1)C1CC1` [Compound 5], the “% reduction in activity (inhibition of Cn Cer1 synthse activity)” value is 94.43%.
In the case of `CCN(C/C=C/c1ccccc1)C(=O)c1cc2cccnc2nc1C` [Compound 6], the “% reduction in activity (inhibition of Cn Cer1 synthse activity)” value amounted to 94.43%.
As to `CCN(CC1CCCCO1)C(=O)c1cccc(-n2cnnc2)c1` (stereo not shown) [Compound 7], the “% reduction in activity (inhibition of Cn Cer1 synthse activity)” value turned out to be 94.43%.
With `CC(C)CN1CC(C(=O)NCc2nncn2C2CCCCC2)CC1=O` (stereo not shown) [Compound 8], the “% reduction in activity (inhibition of Cn Cer1 synthse activity)” value was determined as 94.43%.
The result for `CC(Cn1ccc2ccccc21)NC(=O)c1ccc(-n2cnnc2)cc1` (stereo not shown) [Compound 9] reads 94.43%.
The result for `CCN(C/C=C/c1ccccc1)C(=O)c1ccc(-n2cnnc2)cc1` [Compound 10] reads 94.43%; that for `Cc1ccc(F)cc1NC(=O)N1CCOC2(CNCCOC2)C1` (stereo not shown) [Compound 11], 87.67%.
The figure for `c1cncc(COC2CCN(Cc3ccc(-c4cc[nH]n4)s3)CC2)c1` [Compound 12] is 87.67%.
`CN1CC2(CCCN(C(=O)c3ccc4c(c3)OCCN4C)CC2)OC1=O` (stereo not shown) [Compound 13]: the “% reduction in activity (inhibition of Cn Cer1 synthse activity)” value is 87.67%.
`CN(Cc1cc2cc(F)ccc2[nH]1)C(=O)c1ccccc1C1CCNC1` (stereo not shown) [Compound 14]: the “% reduction in activity (inhibition of Cn Cer1 synthse activity)” value was determined as 87.67%.
The figure for `CCn1c(C2CCN(C(=O)C(N)CC3CCCC3)CC2)nn(C)c1=O` (stereo not shown) [Compound 15] is 87.67%; for `Cc1nc[nH]c1-c1nccn1C(C)c1cccs1` (stereo not shown) [Compound 16] it is 87.67%.
The figure for `Clc1cccc2ccc(CN3CCn4cncc4C3)nc12` [Compound 17] is 87.67%.
The figure for `COc1cccc2c1OCCCN(C(=O)c1cn3c(n1)CNCC3)C2` [Compound 18] is 87.67%.
As for `FC(F)(F)C1CCN(Cc2cc3n(n2)CCNC3)CC1` [Compound 19], the “% reduction in activity (inhibition of Cn Cer1 synthse activity)” value amounted to 87.67%.
Take `Fc1cccc(CN2CCN(Cc3cnc(NCC4CCCO4)nc3)CC2)c1` (stereo not shown) [Compound 20]: the “% reduction in activity (inhibition of Cn Cer1 synthse activity)” value turned out to be 87.67%.
The result for `CCCCN(Cc1ccco1)C(=O)c1cc(C)[nH]c(=O)c1` [Compound 21] reads 86.1%; that for `O=C(NCCC1=CCCN(CCCF)C1)c1cccs1` [Compound 22], 86.1%.
In the case of `CCN(Cc1ccc(-n2cccn2)cc1)CC1CCOCC1` [Compound 23], the “% reduction in activity (inhibition of Cn Cer1 synthse activity)” value is recorded as 86.1%.
The result for `O=C(NCC1(Cn2cccn2)CC1)c1ccccc1N1CCOCC1` [Compound 24] reads 86.1%; that for `C/C(=C\c1ccccc1)CN1CCC(CN)C1` (stereo not shown) [Compound 25], 86.1%; that for `CCC[C@@H]1C[C@H](NC(C)=O)C[C@H](C2CCCCC2)O1` [Compound 26], 86.1%.
The result for `CCc1ncc(C(=O)N2CCN(CC(C)C)C(=O)C2C)cn1` (stereo not shown) [Compound 27] reads 86.1%; that for `COc1cc(F)c(C2CC(=O)Nc3cc(N4CCNC4=O)ccc32)cc1OC` (stereo not shown) [Compound 28], 86.1%.
